This is an account of results in US12178840B2, “Method and compositions comprising a CT20 peptide” (UNIVERSITY OF CENTRAL FLORIDA RESEARCH FOUNDATION, INC., priority 2014, dated 2024).

SMILES strings stand for the structures. Residues, ends and D or L forms follow the SMILES beside them.

Assay [1] addresses T1, Purified recombinant CCTβ (Homo sapiens, UniProt P78371).
T1 construct: purchased MyBioSource; host or cells: E. coli
T1 sequence (P78371 1-535): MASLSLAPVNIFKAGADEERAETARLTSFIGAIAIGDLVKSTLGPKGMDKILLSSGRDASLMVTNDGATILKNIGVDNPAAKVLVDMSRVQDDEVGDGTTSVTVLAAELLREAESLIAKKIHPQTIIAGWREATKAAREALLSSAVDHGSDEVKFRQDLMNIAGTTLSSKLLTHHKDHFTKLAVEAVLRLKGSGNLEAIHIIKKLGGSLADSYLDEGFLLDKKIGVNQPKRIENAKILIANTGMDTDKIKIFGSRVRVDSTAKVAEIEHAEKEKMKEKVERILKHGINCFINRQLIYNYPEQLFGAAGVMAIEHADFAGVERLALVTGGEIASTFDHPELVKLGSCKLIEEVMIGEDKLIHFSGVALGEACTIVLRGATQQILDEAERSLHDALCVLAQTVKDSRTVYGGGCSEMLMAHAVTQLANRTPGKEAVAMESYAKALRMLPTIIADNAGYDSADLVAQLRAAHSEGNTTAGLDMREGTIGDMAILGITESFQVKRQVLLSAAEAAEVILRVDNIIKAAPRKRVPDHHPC
In words: Pull-down with purified recombinant CCTβ. In kind it is binding. The settings on record: 0.1 nmol CCTβ, CT20p-Biotin 0.1 to 4 nmol. As for the experimental part: FIG. 9 is representative data showing that CT20p binds directly to CCTβ. Purified recombinant CCTβ was tested for interaction with CT20p as described in Materials and Methods.
(§1) Pull down experiments: Lysate pull-downs were performed with 200 ug cell lysate, obtained by douncing as described above. Lysates were pre-cleared with streptavidin-agarose beads (Pierce), then incubated with […] of CT20-Biotin or biotin for 3 hours at room temperature, followed by overnight incubation at 4° C. with streptavidin-agarose beads. Beads were washed thoroughly with wash buffer (25 mM Tris, 150 mM NaCl, 0.1% NP40, pH7.4), then heated in 4× loading buffer (Invitrogen) for analysis by SDS-PAGE. Mass spectrometric analysis was performed by Moffit Cancer Center (Tampa, FL). Mass spectrometry results presented are of proteins with at least two unique peptides identified, and that were not recovered with biotin-only pull down. In-cell pull downs were performed by first delivering CT20p-Biotin encapsulated in nanoparticles to viable cells at a dose of 75 μg/mL for varying lengths of time. Following treatment, cells were collected and lysed by douncing. 200 ug of cell lysate were then incubated with streptavidin-agarose beads overnight at 4° C., and pull-down was completed as described above. […]

In a further assay the target is T2, CCTβ in MDA-MB-231 cells (Homo sapiens, UniProt P78371).
T2 construct: delivered to viable MDA-MB-231 and MCF-10A cells, followed by gentle cell lysis; endogenous in cells; host or cells: MDA-MB-231
In words: In-cell pull down (CT20p-biotin in HBPE-nanoparticles), blot for CCTβ. The class given is cell-based. The note with it: whole cell lysates. As for the experimental part: as §1
(§2) Because pull downs performed in cell lysates may emphasize non-specific protein interactions, we designed an in-cell pull down assay to better reflect interactions in the intracellular environment. […] Indeed, no pull down was detected with DiI-loaded nanoparticles.

The next assay addresses T3, CCTβ in MCF-10A cells (Homo sapiens, UniProt P78371).
T3 construct: delivered to viable MDA-MB-231 and MCF-10A cells, followed by gentle cell lysis; endogenous in cells; host or cells: MCF-10A (untransfected)
The description is as above. The class given is cell-based. The settings on record: whole cell lysates. As for the experimental part:
as §1, §2

A further assay has as its system tubulin in MCF-10A cells. In words: Fixed cell immunofluorescence of tubulin. The class given is cell-based, human. The settings on record: 24 hours of CT20p treatment. As for the experimental part:
Fixed cell immunofluorescence: Cells were seeded on glass coverslips (Fisher) in a 6-well plate at a density of 150,000 cells/well. Cells at 60% confluency were treated with CT20p or left untreated for 24 hours. After CT20p treatment, cells were stained with Mitotracker Red CMXRos (Life Technologies) at a concentration of 200 nM for 30 minutes, before being fixed in ice cold methanol for 10 minutes at −20° C. Cells were then permeabilized in 0.1% Triton X-100 for 10 minutes at 37° C. Samples were blocked in 5% normal goat serum (Santa Cruz) for 30 minutes at 37° C., then incubated with primary antibody α-tubulin (DM1A) (Santa Cruz) for 3 hours at 37° C. Secondary antibody was goat α-mouse IgG-FITC (Santa Cruz) and was applied for 1 hour at room temperature. Coverslips were mounted in UltraCruz mounting media (Santa Cruz), which contains DAPI for nuclear staining. Images were obtained with a Zeiss LSM 710 microscope, using a Zeiss 63× Pan-Apocromat oil immersion lens and Zeiss Zen software. To determine average tubulin levels per cell, the amount of FITC fluorescence intensity per region of interest was divided by the number of cells in the field. At least four images containing between 5 and 12 cells were quantified for each condition. Image analysis was done using Volocity software (Perkin Elmer). […]

On to `CC[C@H](C)[C@H](NC(=O)[C@@H](NC(=O)[C@H](CC(C)C)NC(=O)[C@H](CO)NC(=O)[C@H](C)NC(=O)[C@@H](NC(=O)[C@H](CC(C)C)NC(=O)[C@@H](NC(=O)CNC(=O)[C@H](C)NC(=O)[C@@H](NC(=O)[C@H](Cc1ccccc1)NC(=O)[C@@H](NC(=O)[C@@H](NC(=O)[C@@H](NC(C)=O)C(C)C)[C@@H](C)O)[C@@H](C)CC)C(C)C)C(C)C)[C@@H](C)O)[C@@H](C)O)C(=O)N[C@@H](Cc1c[nH]c2ccccc12)C(=O)N[C@@H](CCCCN)C(=O)N[C@@H](CCCCN)C(=O)N[C@@H](CCSC)C(=O)NCC(N)=O` [CT20] (Ac-VTIFVAGVLTASLTIWKKMG-NH2), for which, in assay [1], the “Direct interaction with CCTβ” value was “does interact directly with CCTβ”. In addition, the “Effect on total CCTβ protein levels” value on CCTβ in MDA-MB-231 cells and at CCTβ in MCF-10A cells was “does not affect” each time. Further, the “Amount of tubulin per cell” value with tubulin in MCF-10A cells is “no significant loss”.
